Patent US11491089B2, “Reloadable microcapsules” (International Flavors & Fragrances Inc., priority 2016, dated 2022)

Assay: Hansen solubility parameters of the core solvents
Format: physicochemical
Source text: The term “Hansen solubility parameter” refers to a solubility parameter approach proposed by Charles Hansen used to predict polymer solubility and was developed around the basis that the total energy of vaporization of a liquid consists of several individual parts. To calculate the “weighted Hansen solubility parameter” one must combine the effects of (atomic) dispersion forces, (molecular) permanent dipole-permanent dipole forces, and (molecular) hydrogen bonding (electron exchange). The “weighted Hansen solubility parameter” is calculated as (δD^2+δP^2+δH^2)^0.5, wherein δD is the Hansen dispersion value, δP is the Hansen polarizability value, and δH is the Hansen Hydrogen-bonding (“h-bonding”) value.

## CC(=O)OCC(COC(C)=O)OC(C)=O [triacetin]
  δD (Hansen dispersion value): 16.4
  δH (Hansen h-bonding value): 9.6
  δP (Hansen polar (dipole-dipole) value): 5.7

## CCCCCCCCCCCCCC(=O)OC(C)C [isopropyl myristate]
  δD (Hansen dispersion value): 16
  δH (Hansen h-bonding value): 2.7
  δP (Hansen polar (dipole-dipole) value): 2.1
